Test results as given in publication PMC8421423, “Cellular model system to dissect the isoform-selectivity of Akt inhibitors” (Nature Communications, 2021).
Several values for one entry are separate records, joined by “and”; a condition that tells them apart may be missing. Equal entries are not always repeated. Where two headings read alike, the source gives them in different places.

Assays:
parental Ba/F3 cells = assay: CellTiter-Glo cell viability assay; format: cell-based, murine; settings: for cell viability: CTG, parental
Ba/F3^myr-Akt3 cells = assay: CellTiter-Glo cell viability assay; settings: for Log ratio EC50 [Akt] / EC50 [Akt], Akt3 / Akt2: cell viability assay Ba/F3 myr-Akt cells, log units
Experimental: (§1) On day 0, cells were plated into white 384-well cell culture plates (Greiner Bio-One) using a Multidrop reagent dispenser (Thermo Fisher Scientific) at cell numbers that ensure linear and optimal luminescent signal intensity (Ba/F3myr-Akt1: 600 cells/well, Ba/F3myr-Akt2: 800 cells/well, Ba/F3myr-Akt3: 800 cells/well). […] Cell viability was analyzed on day 4 using the CellTiter-Glo Assay (Promega) as per the manufacturer’s instructions. […] All experimental points were measured in duplicates for each plate and were replicated in at least three plates.

Akt2 = Akt2 (Homo sapiens, UniProt P31751); assay: STK HTRF KinEASE activity-based assay (IC50)
Sequence of Akt2 (P31751 whole entry): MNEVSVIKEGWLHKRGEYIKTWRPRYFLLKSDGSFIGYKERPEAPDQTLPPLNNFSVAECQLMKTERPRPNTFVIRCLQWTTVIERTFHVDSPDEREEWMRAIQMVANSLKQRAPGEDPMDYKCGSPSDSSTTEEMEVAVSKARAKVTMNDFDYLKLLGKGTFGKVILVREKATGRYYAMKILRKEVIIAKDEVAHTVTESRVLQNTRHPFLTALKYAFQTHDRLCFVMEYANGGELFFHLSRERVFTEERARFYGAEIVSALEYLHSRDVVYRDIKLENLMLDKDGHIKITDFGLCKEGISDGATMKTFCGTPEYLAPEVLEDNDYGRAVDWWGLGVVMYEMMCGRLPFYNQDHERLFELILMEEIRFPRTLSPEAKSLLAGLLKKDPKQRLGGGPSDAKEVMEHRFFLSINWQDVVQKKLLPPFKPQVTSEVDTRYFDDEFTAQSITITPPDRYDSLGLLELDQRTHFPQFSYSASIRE

Akt3 = Akt3 (Homo sapiens, UniProt Q9Y243); assay: STK HTRF KinEASE activity-based assay (IC50)
Sequence of Akt3 (Q9Y243 whole entry): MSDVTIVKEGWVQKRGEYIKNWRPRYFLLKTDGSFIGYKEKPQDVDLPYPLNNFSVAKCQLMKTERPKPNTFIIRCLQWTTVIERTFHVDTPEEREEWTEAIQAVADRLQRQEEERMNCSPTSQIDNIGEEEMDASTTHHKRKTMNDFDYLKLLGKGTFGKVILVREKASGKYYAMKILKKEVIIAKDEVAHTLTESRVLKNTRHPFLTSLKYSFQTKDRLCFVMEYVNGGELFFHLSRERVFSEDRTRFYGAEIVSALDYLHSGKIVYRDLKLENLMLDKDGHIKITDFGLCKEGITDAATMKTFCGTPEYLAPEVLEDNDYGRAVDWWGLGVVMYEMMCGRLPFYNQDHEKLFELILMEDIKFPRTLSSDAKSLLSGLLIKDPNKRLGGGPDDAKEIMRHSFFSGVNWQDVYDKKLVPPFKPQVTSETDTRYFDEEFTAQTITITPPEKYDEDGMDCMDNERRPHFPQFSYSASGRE

Akt1 [1] = target: Akt1 (Homo sapiens, UniProt P31749); assay: STK HTRF KinEASE activity-based assay (IC50); settings: for Log ratio IC50 [Akt] / IC50 [Akt], Akt1 / Akt2: biochemical activity based assay, log units
Sequence of Akt1 (Homo sapiens, UniProt P31749) (P31749 whole entry): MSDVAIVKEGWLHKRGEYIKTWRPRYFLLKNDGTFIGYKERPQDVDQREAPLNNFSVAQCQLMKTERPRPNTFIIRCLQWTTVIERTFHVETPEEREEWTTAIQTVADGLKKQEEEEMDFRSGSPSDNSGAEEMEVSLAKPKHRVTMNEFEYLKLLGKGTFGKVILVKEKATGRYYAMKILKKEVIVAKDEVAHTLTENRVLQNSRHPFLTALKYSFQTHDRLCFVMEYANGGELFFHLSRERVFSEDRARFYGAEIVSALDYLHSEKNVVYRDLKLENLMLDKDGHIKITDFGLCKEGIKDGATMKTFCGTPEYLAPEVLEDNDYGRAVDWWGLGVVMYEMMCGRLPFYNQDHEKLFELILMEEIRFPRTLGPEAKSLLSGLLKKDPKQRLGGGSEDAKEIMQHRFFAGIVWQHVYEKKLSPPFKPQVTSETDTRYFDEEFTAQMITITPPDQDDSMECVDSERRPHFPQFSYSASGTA

Ba/F3^myr-Akt2 cells = assay: CellTiter-Glo cell viability assay
Experimental: as §1

Akt1 [2] = target: T1, Akt1 (Homo sapiens, UniProt P31749, E114A/E115A/E116A); assay: ESI-MS/MS of tryptic digest (modified cysteine residues); format: binding; settings: 5-fold molar excess of inhibitor
T1 construct: AKT1(2–446, E114/115/116A); His6 with TEV protease recognition site (N, cleaved yes); made in house; host or cells: Spodoptera frugiperda (Sf9)
T1 sequence (P31749 2-446 E114A/E115A/E116A): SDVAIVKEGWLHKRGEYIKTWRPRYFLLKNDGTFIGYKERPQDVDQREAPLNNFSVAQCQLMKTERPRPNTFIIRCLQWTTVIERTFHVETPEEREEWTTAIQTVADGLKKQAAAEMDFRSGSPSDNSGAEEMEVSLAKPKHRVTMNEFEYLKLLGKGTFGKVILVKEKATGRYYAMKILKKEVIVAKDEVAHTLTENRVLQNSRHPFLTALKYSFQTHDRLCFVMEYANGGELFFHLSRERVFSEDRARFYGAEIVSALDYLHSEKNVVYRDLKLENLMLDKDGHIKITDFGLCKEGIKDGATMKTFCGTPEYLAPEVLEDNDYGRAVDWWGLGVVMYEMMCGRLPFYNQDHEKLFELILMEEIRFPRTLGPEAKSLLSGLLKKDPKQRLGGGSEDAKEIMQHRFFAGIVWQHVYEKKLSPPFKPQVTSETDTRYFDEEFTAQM
Experimental: ESI-MS/MS samples were prepared as stated above followed by steps of reduction, alkylation, and tryptic digest. The digested samples were stage tip-purified using C18 tips and according to a protocol described elsewhere. Subsequently, samples were thawed, dissolved in 20 μL of 0.1% TFA in water, sonicated at room temperature for 15 min, and centrifuged at 15,000×g for 1 min shortly before analysis. In all, 3 μL of sample were loaded onto a pre-column cartridge and desalted for 5 min using 0.1% TFA in water as eluent at a flow rate of 30 μL/min. The samples were back-flushed from the pre-column to the nano-HPLC column during the whole analysis. Elution was performed using a gradient starting at 5% B with a final composition of 30% B after 35 min (flow rate 300 nL/min) using 0.1% formic acid in water as eluent A and 0.1% formic acid in acetonitrile as eluent B and a column temperature of 40 °C. […] During the complete gradient cycle, a typical TOP10 shot-gun proteomics method for the MS and MS/MS analysis was used. For full scan MS experiments a mass range of m/z 300–1650 was scanned with a resolution of 70000. MS/MS experiments were followed by up to 10 high energy collision dissociation (HCD) MS/MS scans with a resolution of 17,500 of the most intense at least doubly charged ions. Data evaluation was performed using MaxQuant[50]. Spectra were searched against the specific Akt sequence and a contamination database using a false discovery rate of 1% on peptide and protein level using a decoy database for determination of the false discovery rate. For database search oxidation of methionine and N-terminal acetylation of proteins, carbamidomethylation of cysteines, and artificial modification of cysteines were defined as variable modifications.

Ba/F3^myr-Akt1 cells = assay: CellTiter-Glo cell viability assay; settings: for Log ratio EC50 [Akt] / EC50 [Akt], Akt1 / Akt2: cell viability assay Ba/F3 myr-Akt cells, log units; for viability at 0.0001 µM: read-out: cell viability, CTG, myr-Akt1, 0.1 nM, single replicates
[3] = tested on: pAkt^S473 and downstream targets in Ba/F3 myr-Akt3; assay: Western blot analysis, Ba/F3 myr-Akt3 cells; format: cell-based, murine; settings: Ba/F3 myr-Akt3, 4-h treatment
Experimental: Cells were seeded into six-well tissue culture plates (Sarstedt) (BaF3 myr-Akt1/2/3: 10^6 cells/well, PANC1: 250.000 cells/well). After 24 h incubation, cells were treated with various concentrations of inhibitors or DMSO and incubated for additional 4.5 h before cells were washed twice with ice-cold PBS. Cell lysis was initiated by addition of 100 μL RIPA buffer (Cell Signaling Technology) per well supplemented with phosphatase and protease inhibitor cocktails (Sigma) followed by incubation on ice for 20 min. Cells were then harvested by scraping (PANC1) or centrifugation (BaF3). Whole cell lysates were cleared by centrifugation at 14,000×g/4 °C for 10 min and transferred into fresh, pre-cooled microcentrifuge tubes. Protein concentrations were determined using the Pierce BCA protein assay (Thermo) as per manufacturer’s instructions. Equal amounts of protein were separated by SDS-PAGE and transferred to Immobilon-FL PVDF membranes (Merck Millipore) using Pierce™ 1-step transfer buffer (Thermo) and the Pierce™ Power Blotter (Thermo). Membranes were washed for 5 min with ddH2O, blocked with Intercept®Blocking Buffer TBS (Li-Cor) for 1 h at room temperature, and then incubated with primary antibodies diluted in Intercept®Blocking Buffer TBS overnight at 4 °C with gentle agitation. […]

[4] = CellTiter-Glo cell viability assay; format: cell-based, murine; settings: mouse, CTG, parental, single replicates; for viability at 3 days, 5 µM: 5000 nM
[5] = tested on: pAkt^S473 and downstream targets in Ba/F3 myr-Akt1; settings: Ba/F3 myr-Akt1, 4-h treatment
[6] = Mus musculus, BaF3, CTG, parental BaF3 cell line, read-out: EC50 BaF3
[7] = Mus musculus, BaF3, parental cells, mean of replicates, read-out: CTG BaF3, Mean
[8] = Mus musculus, BaF3, parental cells, single replicates, read-out: CTG BaF3, individual determinations
[9] = parental cells, single replicates, read-out: CTG BaF3, individual determinations
[10] = Mus musculus, read-out: CTG BaF3myr-Akt3, individual determinations, single replicates
[11] = read-out: CTG BaF3myr-Akt3, individual determinations, single replicates
[12] = HTRF IC50 Akt2, individual determinations, single replicates
[13] = IC50 Akt2, HTRF, ATP at KM, 1 h preincubation
[14] = IC50 Akt3, HTRF, ATP at KM, 1 h preincubation
[15] = HTRF IC50 Akt1, Mean, mean of replicates
[16] = HTRF IC50 Akt1, individual determinations, single replicates
[17] = IC50 Akt1, HTRF, ATP at KM, 1 h preincubation
[18] = read-out: CTG BaF3myr-Akt2, individual determinations, single replicates
[19] = Mus musculus, read-out: CTG BaF3myr-Akt1, Mean, mean of replicates
[20] = Mus musculus, read-out: CTG BaF3myr-Akt1, individual determinations, single replicates
[21] = read-out: CTG BaF3myr-Akt1, individual determinations, single replicates
[22] = 0.1 nM, single replicates, 0.0001 µM
[23] = 5000 nM, single replicates, 5 µM
[24] = CTG, myr-Akt3, 0.1 nM, single replicates, 0.0001 µM
[25] = CTG, myr-Akt3, 5000 nM, single replicates, 5 µM
[26] = Mus musculus, read-out: CTG BaF3myr-Akt3, Mean, mean of replicates
[27] = CTG, myr-Akt1, 0.1 nM, single replicates, 0.0001 µM
[28] = CTG, myr-Akt1, 5000 nM, single replicates, 5 µM

Row | SMILES | EC50 (parental Ba/F3 cells; [6]) [µM] | EC50 (parental Ba/F3 cells; [7]) [µM] | EC50 (parental Ba/F3 cells; [8]) [µM] | EC50 (parental Ba/F3 cells; [9]) | EC50 (Ba/F3^myr-Akt3 cells; [10]) [µM] | Log ratio EC50 [Akt] / EC50 [Akt], Akt3 / Akt2 (Ba/F3^myr-Akt3 cells) | EC50 (Ba/F3^myr-Akt3 cells; [11]) | IC50 (Akt2; [12]) | IC50 (Akt2; [13]) [nM] | IC50 (Akt3; [14]) [µM] | IC50 (Akt1 [1]; [15]) [nM] | IC50 (Akt1 [1]; [16]) | IC50 (Akt1 [1]; [17]) [nM] | Log ratio IC50 [Akt] / IC50 [Akt], Akt1 / Akt2 (Akt1 [1]) | EC50 (Ba/F3^myr-Akt2 cells; [18]) | modified cysteine residues in Akt1 (MS/MS) (Akt1 [2]) | EC50 (Ba/F3^myr-Akt1 cells; [19]) [µM] | EC50 (Ba/F3^myr-Akt1 cells; [20]) [µM] | Log ratio EC50 [Akt] / EC50 [Akt], Akt1 / Akt2 (Ba/F3^myr-Akt1 cells) | EC50 (Ba/F3^myr-Akt1 cells; [21]) | also measured
1 | C=CC(=O)Nc1ccc2[nH]c(=O)n(C3CCN(Cc4ccc(-c5ncc(C(=O)NC)cc5-c5ccccc5)cc4)CC3)c2c1 [compound 6] | > 30 | > 30 | > 30 | > 30 µM | > 30 | -0.38 | 22.6 µM and 24.5 µM | 84.1 nM and 151 nM and 88.6 nM | 108 ± 31 | 5.75 ± 1.55 | 112 | 113 nM and 133 nM and 90.9 nM | 112 ± 21 | 0.02 | 7.18 µM and 12.6 µM | Cys296 and Cys310 | 9.61 | 7.7 | -0.05 | 11.7 µM and 9.47 µM | IC50 (Akt3; HTRF IC50 Akt3, Mean, mean of replicates): 5.75 µM; IC50 (Akt3; HTRF IC50 Akt3, individual determinations, single replicates): 5.69 µM and 3.89 µM and 7.68 µM; loss of activity compared to the ester version (Akt1 [1]; Akt1, biochemical IC50): 4 fold; EC50 (Ba/F3^myr-Akt2 cells; Mus musculus, read-out: CTG BaF3myr-Akt2, Mean, mean of replicates): 10.8 µM; EC50 (Ba/F3^myr-Akt2 cells; Mus musculus, read-out: CTG BaF3myr-Akt2, individual determinations, single replicates): 12.6 µM
2 | C=CC(=O)Nc1ccc2[nH]c(=O)n(C3CCN(Cc4ccc(-c5nc6cc[nH]c(=O)c6cc5-c5ccccc5)cc4)CC3)c2c1 [Borussertib, reference compound] | – | – | – | – | 6.16 | – | 6.18 µM and 7.62 µM and 7.38 µM | – | – | – | – | – | – | – | – | – | 0.44 | 0.341 | – | 0.491 µM and 0.488 µM | pAkt and downstream targets (immunoblot) [3]: dose-dependent reduction of pAkt; viability at 3 days, 0.0001 µM ([4]; 0.1 nM, read-out: cell viability): 98.5%; viability at 3 days, 5 µM [4]: 108%; cell viability (parental Ba/F3 cells; [22]): 106.4 % of control and 91.0 % of control; cell viability (parental Ba/F3 cells; [23]): 102.2 % of control and 91.4 % of control; EC50 (parental Ba/F3 cells; Mus musculus, BaF3, read-out: CTG BaF3, Mean, parental cells, mean of replicates): 20.1 µM; EC50 (parental Ba/F3 cells; read-out: CTG BaF3, individual determinations, parental cells, single replicates): 16.8 µM and 10.9 µM and 24.4 µM; cell viability (Ba/F3^myr-Akt3 cells; [24]): 96.6 % of control and 95.9 % of control; cell viability (Ba/F3^myr-Akt3 cells; [25]): 70.7 % of control and 65.0 % of control; EC50 (Ba/F3^myr-Akt3 cells; [26]): 6.84 µM; viability at 5 µM (Ba/F3^myr-Akt3 cells; Mus musculus, read-out: cell viability, CTG, myr-Akt3, 5000 nM, single replicates): 73.8%; pAkt and downstream targets (immunoblot) [5]: dose-dependent reduction of pAkt; cell viability (Ba/F3^myr-Akt1 cells; [27]): 99.2 % of control and 105.4 % of control; cell viability (Ba/F3^myr-Akt1 cells; [28]): 3.1 % of control and 7.0 % of control and 4.5 % of control; viability at 0.0001 µM (Ba/F3^myr-Akt1 cells; Mus musculus): 90%
3 | C=CC(=O)Nc1ccc2[nH]c(=O)n(C3CCN(Cc4ccc(-c5ncc(CO)cc5-c5ccccc5)cc4)CC3)c2c1 [compound 3] | > 30 | > 30 | > 30 | > 30 µM | > 30 | -0.15 | > 30 µM | 1020 nM and 724 nM and 1140 nM | 961 ± 174 | > 20 | 184 | 133 nM and 103 nM and 189 nM and 310 nM | 186 ± 79 | -0.71 | 21.2 µM and 12.4 µM and > 30 µM | Cys296 and Cys310 | 28.3 | 26.6 | 0.13 | 28.3 µM | EC50 BaF3myr-Akt3 (Ba/F3^myr-Akt3 cells; CTG): generally inactive; EC50 (Ba/F3^myr-Akt3 cells; [26]): > 30 µM; EC50 (Ba/F3^myr-Akt3 cells; Mus musculus, read-out: EC50 BaF3myr-Akt3, CTG): > 30 µM; IC50 (Akt2; HTRF IC50 Akt2, Mean, mean of replicates): 961 nM; EC50 BaF3myr-Akt1 (Ba/F3^myr-Akt1 cells; CTG): generally inactive
4 | C=CC(=O)Nc1ccc2[nH]c(=O)n(C3CCN(Cc4ccc(-c5[nH]c(=O)c(CC(C)C)nc5-c5ccccc5)cc4)CC3)c2c1 [16b, reference compound] | – | 20.1 | 21.6 | 15.9 µM and 22.9 µM | – | – | > 30 µM and 24.5 µM and 11.4 µM | – | – | – | – | – | – | – | – | – | – | 29.7 | – | 29.8 µM and > 30 µM | pAkt and downstream targets (immunoblot) [3]: preferential binding; viability at 3 days, 5 µM ([4]; parental Ba/F3 cells): 98%; cell viability (parental Ba/F3 cells; [22]): 102.9 % of control and 116.0 % of control and 91.9 % of control; cell viability (parental Ba/F3 cells; [23]): 99.0 % of control and 116.0 % of control; cell viability (Ba/F3^myr-Akt3 cells; [24]): 96.8 % of control; cell viability (Ba/F3^myr-Akt3 cells; [25]): 61.2 % of control; cell viability (Ba/F3^myr-Akt1 cells; [27]): 105.6 % of control; cell viability (Ba/F3^myr-Akt1 cells; [28]): 102.7 % of control and 99.1 % of control; viability at 0.0001 µM (Ba/F3^myr-Akt1 cells; Mus musculus): 99%; viability at 5 µM (Ba/F3^myr-Akt1 cells; Mus musculus, read-out: cell viability, CTG, myr-Akt1, 5000 nM, single replicates): 102%
